Results published in article PMC9120017, “Inhibition mechanism of the chloride channel TMEM16A by the pore blocker 1PBC” (Nature Communications, 2022).

Biological target: T1, wild-type mouse TMEM16A (Mus musculus, UniProt Q8BHY3)
T1 construct: expressed in transfected cells; host or cells: HEK293T
T1 sequence (Q8BHY3 1-960): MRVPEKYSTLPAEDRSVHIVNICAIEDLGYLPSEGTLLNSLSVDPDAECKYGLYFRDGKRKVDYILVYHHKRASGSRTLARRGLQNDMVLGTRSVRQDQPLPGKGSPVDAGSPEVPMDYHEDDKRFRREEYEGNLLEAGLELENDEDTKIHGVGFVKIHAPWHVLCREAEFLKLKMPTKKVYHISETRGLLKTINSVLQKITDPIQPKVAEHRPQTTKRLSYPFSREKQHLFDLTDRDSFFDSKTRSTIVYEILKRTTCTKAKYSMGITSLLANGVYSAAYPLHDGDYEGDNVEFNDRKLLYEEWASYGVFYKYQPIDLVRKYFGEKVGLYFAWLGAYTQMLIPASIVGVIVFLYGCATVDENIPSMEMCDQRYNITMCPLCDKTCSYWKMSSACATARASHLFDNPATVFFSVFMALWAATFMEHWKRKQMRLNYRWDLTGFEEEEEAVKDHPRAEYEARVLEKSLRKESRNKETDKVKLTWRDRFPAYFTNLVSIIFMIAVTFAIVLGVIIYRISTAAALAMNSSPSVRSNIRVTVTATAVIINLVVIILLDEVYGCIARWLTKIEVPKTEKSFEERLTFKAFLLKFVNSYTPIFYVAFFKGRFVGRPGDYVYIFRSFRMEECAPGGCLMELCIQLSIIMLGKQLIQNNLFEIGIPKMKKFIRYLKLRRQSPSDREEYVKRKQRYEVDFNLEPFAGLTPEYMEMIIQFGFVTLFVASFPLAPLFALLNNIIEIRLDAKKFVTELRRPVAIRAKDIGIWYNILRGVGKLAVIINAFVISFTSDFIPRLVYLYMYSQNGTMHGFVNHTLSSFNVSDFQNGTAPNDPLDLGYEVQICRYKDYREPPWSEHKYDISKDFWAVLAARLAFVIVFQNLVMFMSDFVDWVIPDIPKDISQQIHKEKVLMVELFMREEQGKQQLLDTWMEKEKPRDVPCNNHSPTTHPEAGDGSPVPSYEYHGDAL
Assay: Ultra-fast concentration-jump experiments, kinetics of 1PBC block in inside-out patches
Format: cell-based
Conditions: 3 µM 1PBC; excised patches, ultra-fast perfusion
Procedure: HEK293T cells were transfected with 3–4 μg DNA per 6 cm Petri dish using the calcium phosphate co-precipitation method and were used within 24–96 h after transfection. Recordings were performed on inside-out patches excised from HEK293T cells expressing the construct of interest. Patch pipettes were pulled from borosilicate glass capillaries (O.D. 1.5 mm, I.D. 0.86 mm, Sutter Instrument) and were fire-polished with a microforge (Narishige) before use. Pipette resistance was typically 3–8 MΩ when filled with the recording solutions detailed below. Seal resistance was typically 4 GΩ or higher. Voltage-clamp recordings were made using Axopatch 200B, Digidata 1550, and Clampex 10.7 (Molecular Devices). Analog signals were filtered with the in-built 4-pole Bessel filter at 10 kHz and were digitized at 20 kHz. Solution exchange was achieved using a gravity-fed system through a theta glass pipette mounted on an ultra-fast piezo-driven stepper (Siskiyou). […] All recordings were performed at 20 °C.
Supplementary Fig. 2: State dependence of 1PBC block. a, Kinetics of 1PBC block at an intermediate 1PBC concentration and the indicated sub- saturating Ca2+ concentrations in ultra-fast concentration- jump experiments at + 8 0 m V in the inside- out configuration. 1PBC was applied from the intracellular side. […] 6 µM (as determined in Fig. 2a, b) and kon = 1 x 106 M-1s-1. […]

## N#Cc1c(C(F)(F)F)cc(O)n2c1nc1ccccc12 [1PBC]
  Kinetics of block (time constant): ~ 50 ms
